Results on five compounds are retold here after paper PMC8997913, “Lichen Secondary Metabolites Inhibit the Wnt/β-Catenin Pathway in Glioblastoma Cells and Improve the Anticancer Effects of Temozolomide” (Cells, 2022).

Structures are written as SMILES.

Details of data set [1]: method as in PMID 34959693, PMID 33916370. The note with it: previous studies, ref [5],[14]; cited from earlier work.
In data set [2] the test system is Wnt/β-catenin pathway target genes in A-172 cells. The data set is described as follows: qPCR of β-catenin and Wnt target genes, A-172. Format: cell-based, human. As to conditions: A-172, 48 h. As for the experimental part: (§1) Based on the MTT test, the lichen secondary metabolite concentrations allowing the survival of more than 70% of cells were chosen for the subsequent experiments. The compounds were added as follows: A-172 cells—atranorin 25 µM, caperatic acid 50 µM, physodic acid 25 µM, squamatic acid 25 µM, salazinic acid 50 µM, and lecanoric acid 100 µM; T98G cells—atranorin 50 µM, caperatic acid 100 µM, physodic acid 25 µM, squamatic acid 50 µM, salazinic acid 100 µM, and lecanoric acid 100 µM; U-138 MG cells—atranorin 25 µM, caperatic acid 50 µM, physodic acid 25 µM, squamatic acid 50 µM, salazinic acid 50 µM, and lecanoric acid 100 µM. As far as the TMZ treatment is concerned, it was added in the concentrations depending on the MGMT expression and methylation status, i.e., TMZ 30 µM was added to the A-172 cell line, and TMZ 100 µM was added to both the T98G and U-138 MG cell lines. In the case of the 2D culture, the cells were treated with the compounds 24 h after seeding, whereas, in regard to 3D culture, 5 days were needed to form spheroids. All subsequent analyses were performed 48 h after treatment.
(§2) The Universal RNA Purification Kit (EURx, Gdańsk, Poland) was used for total RNA isolation from the A-172, T98G, and U-138 MG cells, and the Revert-Aid First Strand cDNA Synthesis kit (Fermentas, Burlington, ON, Canada) was chosen for cDNA synthesis. Quantitative real-time PCR (qPCR) was performed using Hot FIREPol EvaGreen qPCR Mix Plus (Solis Biodyne, Tartu, Estonia) and LightCycler 96 (Roche Diagnostics GmbH, Mannheim, Germany). Primer sequences were previously published and their synthesis was performed at the Institute of Biochemistry and Biophysics, Warsaw, Poland. The protocol started with 15 min enzyme activation at 95 °C, followed by 40 cycles of 95 °C for 15 s; appropriate annealing temperature for 20 s; 72 °C for 40 s and the final elongation at 72 °C for 5 min. Melting curve analysis was used to confirm the generation of a single amplification product. TATA box-binding protein (TBP), a component of the DNA-binding protein complex TFIID, served as the endogenous RNA control. The results were expressed as N-fold differences in the gene expression relative to the TBP gene. The ΔΔCt method was used for fold-change calculation. All samples were analyzed in triplicate, and the reaction was repeated at least twice.

In data set [3] the test system is Wnt/β-catenin pathway target genes in T98G cells. Nature of the data set: qPCR of β-catenin and Wnt target genes, T98G. Format: cell-based, human. As to conditions: 48 h, mRNA vs DMSO control, single agent. On the procedure: as §1, §2
Data set [4] relates to U-138 MG cells. Nature of the data set: Apoptosis, caspase-3/7 and 7-AAD flow cytometry, U-138 MG. Type of data set: cell-based, human. As to conditions: 48 h. As for the experimental part:
as §1
(§3) The fluorescent-based analysis of apoptosis using Muse® Caspase-3/7 Kit was performed in order to analyze the percentage of live, early, and late apoptotic; total apoptotic; and dead cells in A-172, T98G, and U-138 MG GBM cells treated with lichen secondary metabolites. The principle of the method relies on the measurement of the activity of executioner caspases, i.e., caspase-3 and caspase-7, as well as analyzing the integrity of the cell membrane with the use of a dead cell marker 7-AAD. Cell seeding and treatment followed the same protocol as for cell cycle or ROS generation analysis, while the subsequent procedures were performed according to the manufacturer’s recommendations.

A further data set relates to A-172 cells. The note with it: taken from the literature, ref [14]; read-out: IC50 [uM] ± SEM A-172; cited from earlier work.
Data set [5] relates to T98G cells. Nature of the data set: Apoptosis, caspase-3/7 and 7-AAD flow cytometry, T98G. Format: cell-based, human. On the procedure: as §1, §3
Data set [6] concerns Wnt/β-catenin pathway target genes in U-138 MG cells. The data set is described as follows: qPCR of β-catenin and Wnt target genes, U-138 MG. Type of data set: cell-based, human. The note with it: 48 h; for NEDD9 expression: TMZ 100 µM. As for the experimental part: as §1, §2
Data set [7] has as its system T98G cells. The note with it: taken from the literature, ref [14]; read-out: IC50 [uM] ± SEM T98G; cited from earlier work.
The test system of data set [8] is U-138 MG cells. Set-up: method as in PMID 33916370. The note with it: taken from the literature, ref [14]; read-out: IC50 [uM] ± SEM U-138 MG; cited from earlier work.
Data set [9] concerns A375 melanoma cancer cells. Also noted: method as in PMID 28012710. The note with it: ref [33]; cited from earlier work.
A short description of data set [10]: Parallel artificial membrane permeability assay for the blood-brain barrier (PAMPA-BBB). Type of data set: in vitro ADME. The note with it: pH 7.4, 4 h, 37 °C, mean ± SEM, n = 3, Pe > 1.5 high, < 1.5 low permeation predicted, read-out: Pe × 10^−6. As for the experimental part:
The parallel artificial membrane permeability assay (PAMPA) for the blood-brain barrier (BBB) (Pion Inc., Billerica, MA, USA) was used to analyze whether the lichen secondary metabolites tested in this study were able to cross the BBB. The stock solutions (5 mg/mL) of tested compounds were prepared using DMSO. Next, the donor solution (24.75 μg/mL) using Prisma buffer (pH = 7.4; Prisma HT, Pion Inc., Billerica, MA, USA) were made. Firstly, 180 μL of the donor solution were added to the donor wells. Then the filter membranes were coated with 5 μL BBB-1 lipid solution (Pion Inc., Billerica, MA, USA) and the acceptor wells were filled with 200 μL BSB (Brain Sink Buffer, Pion Inc., Billerica, MA, USA). The plates were sandwiched together and incubated for 4 h at 37 °C (Thermo Scientific MaxQ 4450, Waltham, MA, USA). The results were determined by spectroscopic analysis (Multiskan GO microplate reader, Waltham, MA, USA), with the appropriate wavelength for a given compound (240 nm for […] salazinic acid, 250 nm for atranorin and squamatic acid, 263 nm for physodic acid, and 270 nm for lecanoric acid). […] Pe is the effective permeability coefficient (cm/s), VD-donor volume, VA-acceptor volume, Ceq-equilibrium concentration, Ceq=CD×VD+CA×VA/VD+VA , S-membrane area, and t-incubation time (in seconds). […] Samples were analyzed in triplicate, and the average was reported.

In data set [11] the test system is T98G cells. The data set is described as follows: ROS (superoxide) generation, flow cytometry, T98G. As to conditions: 48 h. Format: cell-based, human. On the procedure:
(§4) Based on the MTT test, the lichen secondary metabolite concentrations allowing the survival of more than 70% of cells were chosen for the subsequent experiments. The compounds were added as follows: A-172 cells—atranorin 25 µM, caperatic acid 50 µM, physodic acid 25 µM, squamatic acid 25 µM, salazinic acid 50 µM, and lecanoric acid 100 µM; T98G cells—atranorin 50 µM, caperatic acid 100 µM, physodic acid 25 µM, squamatic acid 50 µM, salazinic acid 100 µM, and lecanoric acid 100 µM; U-138 MG cells—atranorin 25 µM, caperatic acid 50 µM, physodic acid 25 µM, squamatic acid 50 µM, salazinic acid 50 µM, and lecanoric acid 100 µM. […]
The intracellular detection of superoxide radicals was detected by flow cytometric analysis after the staining with dihydroethidium, using The Muse® Oxidative Stress Kit (Merck, Darmstadt, Germany). Briefly, 100,000 cells per well were seeded on 6-well plates and after a 24 h incubation they were treated with the analyzed lichen secondary metabolites in the concentrations allowing >70% of cell survival; cells treated with DMSO were used as the negative control. […] The obtained data were evaluated using Muse® Analysis Software ver. […]

The test system of data set [12] is T98G cells-derived spheroids. Nature of the data set: Microarray expression study of T98G spheroids. Type of data set: cell-based, human. The note with it: 48 h, TMZ 100 µM, FC > abs. 2. On the procedure: Moreover, the 3D culture of the T98G cell line was also established. The cells were cultured in ultra-low attachment microplates (Corning®, Corning, NY, USA) (1000 cell per well) to form spheroids. The standard medium was supplemented with Corning® Matrigel® Matrix for Organoid Culture (3.5%) (Corning®, Corning, NY, USA) and epidermal growth factor—EGF (10 ng/mL) (Stemcell Technologies, Vancouver, BC, Canada). Both 2D and 3D cell cultures were grown in a standard humidified incubator (Memmert, Schwabach, Germany) at 37 °C in 5% CO2 and 95% air atmosphere.
as §4
The obtained CEL files were further analyzed using the R statistical language and Bioconductor package, including the relevant Bioconductor libraries. […]

[13] abbreviates: mRNA vs DMSO control, single agent, (TMZ 30 µM).
[14] abbreviates: mRNA vs DMSO control, single agent.

Take `CC(=O)C1=C(O)C=C2Oc3c(C(C)=O)c(O)c(C)c(O)c3[C@]2(C)C1=O` [(−)-usnic acid]: the “ability to cross the blood-brain barrier” value in data set [1] was “can cross the blood-brain barrier”.
As for `Cn1ncnc2c(=O)n(C)c(=O)nc1-2` [PKF118-310, reference compound], the “c-MYC expression” value in [2] (setting [13]) and in data set [3] was “did not diminish” throughout. Also, the “BIRC5 expression” value in data set [3] (TMZ 100 µM) is on record as “downregulated”.
For the compound `CCCCCC(=O)Cc1cc(O)cc2c1C(=O)Oc1cc(O)c(C(=O)O)c(CCCCC)c1O2` [Physodic acid], the “effect on apoptosis” value in the data set on U-138 MG cells [4] is reported as “anti-apoptotic effect”. Besides, the results for the “CCND1 expression” value in [2] (co-treatment with TMZ 30 µM) and in [6] (setting [14]) were “upregulation” and “downregulated CCND1 expression by around half”, respectively. The “NEDD9 expression” value in data set [2] (setting [14]) is given as “downregulated”; in data set [6] (setting [14]) it was “upregulated”. Moreover, the IC50 is 42.4 ± 1.25 µM with A-172 cells, 50.6 ± 1.09 µM in the data set with T98G cells [7] and 45.7 ± 4.2 µM in the data set on U-138 MG cells [8]. The “number of apoptotic cells vs control” value in the data set with T98G cells [5] (48 h, topotecan 100 nM) is listed as “significant increase”. The apoptotic cells detected with T98G cells [5] (48 h treatment) is listed as around 80%. Moreover, the “expression of the Wnt target genes” value in [6] (co-treatment with TMZ 100 µM) is “huge downregulatory effect”. Also, the “Axin2 expression” value in data set [6] (setting [14]) was “decreased”. Also, the “apoptosis induction” value in data set [9] was “activated an apoptotic process”. Besides, the “ability to cross the blood-brain barrier” value in [1] is listed as “can cross the blood-brain barrier”. Besides, in data set [10], the Papp at 4 h, 24.75 µg/mL was 3.9 ± 0.2 ×10⁻⁶ cm/s. Further, the “oxidative stress (superoxide) induction” value in the data set on T98G cells [11] is given as “induce oxidative stress”. In addition, the “c-MYC expression” value in data set [3] was “downregulated”. Moreover, the “BIRC5 expression” value in [3] (TMZ 100 µM) was “downregulated”.
Regarding `Cn1nnc2c(C(N)=O)ncn2c1=O` [TMZ, temozolomide], in [2] (setting [13]), the “Axin2 expression” value was “upregulated” and the “c-MYC expression” value was “upregulated”. For the same compound, the “NEDD9 expression” value in data set [6] (setting [14]) is on record as “downregulated”. Further, in data set [3] (TMZ 100 µM), the “Axin2 expression” value is reported as “downregulation” and the “BIRC5 expression” value was “downregulation”. In addition, in data set [12], the “number of significantly downregulated genes vs control” value is listed as 46 and the “number of significantly upregulated genes vs control” value was 15.
Regarding `COc1cc(C)c(C(=O)Oc2cc(C)c(C(=O)O)c(O)c2)c(O)c1` [evernic acid], the “ability to cross the blood-brain barrier” value in data set [1] is reported as “can cross the blood-brain barrier”.
